Test results taken from publication PMC11882969 (Nature Communications, 2025).
“And” between values parts separate entries of the source, which are not always exact repeats. Equal entries are not always repeated.

Key:
[1] = biological target: T1, hCB1 (Homo sapiens, UniProt P21554); experiment: bioSensAll ebBRET signaling profiling, hCB1; type: cell-based; parameters: host or cells: HEK293SL cells, transient PEI transfection; details: for Gi1 hCB1 / GoB hCB1: single replicate values, FigS6a; for Emax [95% CI]: normalized to CP-55,940; for EC50: read-out: EC50 [95% CI]
[2] = biological target: CB1 (rCB1) (Rattus norvegicus, UniProt P20272); experiment: Radioligand competition binding, [3H]-CP-55,940, rat brain membranes
[3] = biological target: T1, hCB1; experiment: Tango β-arrestin-2 recruitment, HTLA cells, CB1R; type: cell-based; parameters: expressed in transfected cells; host or cells: HTLA cells (gift of R. Axel), transient transfection
[4] = biological target: hCB2 (Homo sapiens, UniProt P34972); experiment: TRUPATH BRET2 GoA dissociation, HEK293T; type: cell-based; parameters: expressed in transfected cells; host or cells: HEK293T cells (ATCC: CRL-3216), transient co-transfection; details: Log[drug], replicate columns
hCB2, sequence (P34972 whole entry): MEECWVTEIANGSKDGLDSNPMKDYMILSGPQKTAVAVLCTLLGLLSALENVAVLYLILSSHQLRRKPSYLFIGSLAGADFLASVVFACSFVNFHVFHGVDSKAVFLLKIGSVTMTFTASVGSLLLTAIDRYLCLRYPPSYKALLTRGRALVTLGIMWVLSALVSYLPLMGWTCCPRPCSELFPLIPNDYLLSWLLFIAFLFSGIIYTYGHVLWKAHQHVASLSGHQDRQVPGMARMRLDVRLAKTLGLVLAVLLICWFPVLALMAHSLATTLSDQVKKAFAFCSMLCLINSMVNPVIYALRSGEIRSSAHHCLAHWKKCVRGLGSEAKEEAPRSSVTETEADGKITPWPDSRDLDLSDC

T1 sequence (P21554 whole entry): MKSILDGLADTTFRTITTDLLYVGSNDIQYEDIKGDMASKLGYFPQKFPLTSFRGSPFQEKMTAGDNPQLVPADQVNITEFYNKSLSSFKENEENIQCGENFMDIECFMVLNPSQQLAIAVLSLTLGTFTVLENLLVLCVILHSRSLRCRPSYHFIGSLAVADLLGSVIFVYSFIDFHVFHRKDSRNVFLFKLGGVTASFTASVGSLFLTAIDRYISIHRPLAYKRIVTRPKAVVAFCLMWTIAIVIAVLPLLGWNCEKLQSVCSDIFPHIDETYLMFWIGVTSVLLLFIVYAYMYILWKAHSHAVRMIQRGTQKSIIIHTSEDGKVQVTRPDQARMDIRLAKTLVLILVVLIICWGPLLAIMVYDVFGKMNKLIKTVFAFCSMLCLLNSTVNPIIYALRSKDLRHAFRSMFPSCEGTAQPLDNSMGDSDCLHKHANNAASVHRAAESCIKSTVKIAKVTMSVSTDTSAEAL
CB1 (rCB1), sequence (P20272 whole entry): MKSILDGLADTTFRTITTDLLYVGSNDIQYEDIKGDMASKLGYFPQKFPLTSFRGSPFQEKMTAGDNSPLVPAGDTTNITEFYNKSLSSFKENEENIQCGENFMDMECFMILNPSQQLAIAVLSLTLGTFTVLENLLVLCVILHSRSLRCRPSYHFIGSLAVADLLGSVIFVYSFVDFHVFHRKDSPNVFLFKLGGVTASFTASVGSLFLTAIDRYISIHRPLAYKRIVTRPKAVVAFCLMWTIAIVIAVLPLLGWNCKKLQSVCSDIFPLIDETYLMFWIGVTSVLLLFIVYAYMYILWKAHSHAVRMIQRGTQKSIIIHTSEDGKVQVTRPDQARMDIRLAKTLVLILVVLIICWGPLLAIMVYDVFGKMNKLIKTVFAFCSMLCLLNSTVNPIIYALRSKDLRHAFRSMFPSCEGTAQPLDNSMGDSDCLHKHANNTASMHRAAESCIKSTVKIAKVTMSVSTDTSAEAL

SMILES: COC(=O)[C@@H]1[C@@H]2CCC[C@@H]2CN1C(=O)c1cc(C)n(-c2cccc(Cl)c2)n1 (racemic) [‘10010]
- Gi1 hCB1 ([1]; Log [Compound] (M) -11.0177): 0.9524
- GoB hCB1 ([1]; Log [Compound] (M) -11.0177): -2.384
- Gi1 hCB1 ([1]; Log [Compound] (M) -11.4949): 2.417
- GoB hCB1 ([1]; Log [Compound] (M) -11.4949): -4.326
- Gi1 hCB1 ([1]; Log [Compound] (M) -11.9208): 1.261
- GoB hCB1 ([1]; Log [Compound] (M) -11.9208): -0.06441
- Gi1 hCB1 ([1]; Log [Compound] (M) -12.3979): 1.908
- GoB hCB1 ([1]; Log [Compound] (M) -12.3979): 2.4173
- Gi1 hCB1 ([1]; Log [Compound] (M) -12.8861): 1.322
- GoB hCB1 ([1]; Log [Compound] (M) -12.8861): 1.59
- Gi1 hCB1 ([1]; Log [Compound] (M) -13): 2.232 and 1.538
- GoB hCB1 ([1]; Log [Compound] (M) -13): 0.8707 and 1.266
- pEC50 [95% CI] ([1]; hCB1 Gi1): 6.1 [6.0 – 6.1]
- Emax [95% CI] ([1]; hCB1 Gi1): 74 [70 – 74]
- pEC50 [95% CI] ([1]; hCB1 GoB): 6.1 [6.0 – 6.2]
- Emax [95% CI] ([1]; hCB1 GoB): 71 [67 – 75]
- pEC50 [95% CI] ([1]; hCB1 Gz): 5.9 [5.4 – 6.3]
- Emax [95% CI] ([1]; hCB1 Gz): 144 [113 –175]
- EC50 ([1]; hCB1 Gi1): 814 nM
- EC50 ([1]; hCB1 GoB): 801 nM
- EC50 ([1]; hCB1 Gz): 1400 nM
- pKi [95% CI] ([2]; rCB1): 5.9 [5.8 – 6.0]
- Ki ([2]; read-out: Ki [95% CI], rCB1, [3H]-CP-55,940): 1200 nM
- response, replicate values of concentration-response curve (FigS7f) ([3]; Log[drug], M = -4.52): 24.852 and -9.474 and 31.57 and 49.261 and 34.9163 and 58.51 and 43.3772 and 13.5605 and 34.2635 and 143.166 and 149.946 and 121.258
- response, replicate values of concentration-response curve (FigS7f) ([3]; Log[drug], M = -5): -6.393 and 4.812 and 50.5074 and 20.7309 and 18.1964 and 30.378 and 30.3734 and 43.3772 and 17.784 and 37.7997 and 110.741 and 29.9442
- response at Log[drug], M -5 (FigS4e) ([3]; Log[drug], M = -5, individual replicates): 7.472 and 8.685 and 7.884 and 5.743 and 2.852 and 6.706 and 6.083 and 7.677 and 9.73 and 9.693 and 11.3624 and 13.6983
- response, replicate values of concentration-response curve (FigS7f) ([3]; Log[drug], M = -5.52): -20.324 and 14.103 and 31.5067 and 7.169 and 19.8684 and 6.1872 and -9.345 and -6.435 and -28.1989 and 72.0832 and 46.8763 and 64.173
- response at Log[drug], M -5.52 (FigS4e) ([3]; Log[drug], M = -5.52, individual replicates): 17.6293 and 13.3704 and 15.7552 and 17.3388 and 7.111 and 7.22 and 6.777 and 6.548 and 14.8053 and 14.1767 and 12.0847 and 15.6871
- response, replicate values of concentration-response curve (FigS7f) ([3]; Log[drug], M = -6): -1.057 and 19.693 and 21.3155 and 18.7272 and -21.0026 and 10.5662 and 17.0767 and 0.7084 and 10.105 and 46.129 and 8.583 and -11.9397
- response at Log[drug], M -6 (FigS4e) ([3]; Log[drug], M = -6, individual replicates): 17.4137 and 13.2205 and 12.7098 and 18.5288 and 2.8 and 2.042 and 0.7471 and 2.0116 and 5.809 and 8.098 and 10.8652 and 9.299
- response, replicate values of concentration-response curve (FigS7f) ([3]; Log[drug], M = -6.52): 16.7142 and -12.7567 and -9.207 and 42.4801 and 2.591 and -9.299 and -1.706 and 6.518 and 3.588 and 25.7157 and 29.853 and 20.7035
- response at Log[drug], M -6.52 (FigS4e) ([3]; Log[drug], M = -6.52, individual replicates): 5.804 and 6.685 and 5.518 and 6.338 and -2.975 and -1.665 and -2.183 and -3.091 and 1.981 and 0.8276 and 5.1991 and 1.175
- response, replicate values of concentration-response curve (FigS7f) ([3]; Log[drug], M = -7): 11.1876 and 2.403 and 33.2939 and -14.3677 and -5.119 and -14.8322 and -4.192 and -26.8955 and -17.9232 and -30.0748 and 5.375 and 20.4665
- response at Log[drug], M -7 (FigS4e) ([3]; Log[drug], M = -7, individual replicates): 8.629 and 6.746 and 5.86 and 10.4703 and -2.0219 and -2.877 and 1.224 and -2.078 and 2.76 and 0.06777 and 1.494 and 1.231
- response, replicate values of concentration-response curve (FigS7f) ([3]; Log[drug], M = -7.52): -4.594 and -7.623 and -10.5004 and 2.14 and -6.485 and 4.329 and -8.365 and -9.244 and -13.1441 and 57.083 and -23.4769 and -26.8306
- response at Log[drug], M -7.52 (FigS4e) ([3]; Log[drug], M = -7.52, individual replicates): 7.402 and 10.1376 and 9.341 and 5.865 and -1.189 and -1.594 and -1.932 and -1.59 and 2.357 and 3.37 and 0.3773 and 1.259
- response at Log[drug], M -8 (FigS4e) ([3]; Log[drug], M = -8, individual replicates): 5.148 and 6.741 and 11.0794 and 7.462 and -3.208 and -1.519 and -1.219 and -1.073 and 3.632 and 3.698 and 2.085 and 1.362
- response at Log[drug], M -8.52 (FigS4e) ([3]; Log[drug], M = -8.52, individual replicates): 6.619 and 9.146 and 5.084 and 9.668 and -0.1198 and -1.382 and -2.75 and -0.9228 and 3.28 and -0.4583 and 7.234 and 5.093
- response at Log[drug], M -9 (FigS4e) ([3]; Log[drug], M = -9, individual replicates): 7.852 and 7.417 and 8.056 and 9.08 and -2.328 and -1.287 and -1.685 and -1.328 and 7.254 and 4.304 and 5.943 and 1.774
- response, replicate values of concentration-response curve (FigS7f) ([3]; Log[drug], M = -9.52): 6.738 and -6.178 and -20.755 and -11.5014
- response at Log[drug], M -9.52 (FigS4e) ([3]; Log[drug], M = -9.52, individual replicates): 9.847 and 11.0284 and 11.6628 and 8.737 and -1.263 and 0.9084 and -0.5418 and -0.1936 and 4.704 and 2.799 and 4.5399 and 1.57
- response, replicate values of concentration-response curve (FigS7f) ([3]; Log[drug], M = -10): 28.4645 and -14.1129 and -6.736 and 44.2981 and 21.9252 and 39.0432 and 53.2891 and 13.6717 and 41.3867 and -34.1393 and -0.001553 and -21.0711
- response at Log[drug], M -10 (FigS4e) ([3]; Log[drug], M = -10, individual replicates): 10.788 and 9.1102 and 5.959 and 9.12 and -1.758 and -1.431 and -1.611 and -0.8081 and 3.28 and 4.704 and 4.745 and 3.311
- response at Log[drug], M -10.52 (FigS4e) ([3]; Log[drug], M = -10.52, individual replicates): 6.358 and 9.064 and 8.9107 and 9.172 and 1.265 and 0.1792 and -0.6688 and 1.04 and 3.157 and 2.819 and 2.153 and 4.1507
- response at Log[drug], M -11 (FigS4e) ([3]; Log[drug], M = -11, individual replicates): 2.256 and 6.798 and 9.796 and 5.744 and -1.353 and -1.763 and 1.556 and -0.804 and 2.6758 and 2.932 and 3.905 and 1.57
- response at Log[drug], M -11.52 (FigS4e) ([3]; Log[drug], M = -11.52, individual replicates): 2.281 and 3.903 and 3.253 and 1.1509 and 1.314 and 0.9699 and 1.212 and 0.552 and 3.905 and 2.9421 and 2.881 and 4.816
- response at Log[drug], M -12 (FigS4e) ([3]; Log[drug], M = -12, individual replicates): 1.069 and -1.289 and -0.4859 and 0.7059 and -0.1854 and 0.7118 and -1.111 and 0.5848 and 1.078 and -0.868 and 0.4635 and -0.6734
- EC50 ([3]; hCB1, read-out: Tango ß-arrestin recruitment EC50): > 10000 nM
- functional response, concentration-response point (FigS7e, normalized) ([4]; M = -5): 13.7314 and 19.7654 and 16.2539 and 16.3582 and 15.5266 and 14.7181 and 16.9744 and 17.1956 and 17.3437 and 20.7447 and 17.5139 and 16.5546
- functional response, concentration-response point (FigS7e, normalized) ([4]; M = -5.52): 20.9042 and 19.2165 and 18.0732 and 18.0369 and 19.6455 and 19.8563 and 17.8521 and 14.5073 and 16.3411 and 19.903 and 17.2602 and 16.9755
- functional response, concentration-response point (FigS7e, normalized) ([4]; M = -6): 10.7507 and 14.9427 and 13.7359 and 16.0951 and 12.4583 and 11.3422 and 12.1059 and 9.687 and 11.8107 and 11.4703 and 9.703 and 11.3929
- functional response, concentration-response point (FigS7e, normalized) ([4]; M = -6.52): 4.563 and 6.7947 and 8.079 and 4.985 and 4.497 and 4.0725 and 5.772 and 5.524 and 4.879 and 5.1763 and 4.984 and 5.043
- functional response, concentration-response point (FigS7e, normalized) ([4]; M = -7): 0.9969 and 1.487 and 2.14 and 1.042 and 1.585 and 1.996 and 1.046 and 1.153 and 1.5 and 1.42 and 1.036 and 1.049
- functional response, concentration-response point (FigS7e, normalized) ([4]; M = -7.52): 0.4797 and -0.06465 and 1.02 and 1.242 and 0.9491 and 0.7245 and 0.6969 and 0.2961 and 0.374 and 0.3276 and 0.4451 and 0.1667
- functional response, concentration-response point (FigS7e, normalized) ([4]; M = -8): 0.02154 and 0.144 and -0.228 and -0.5682 and 0.189 and -0.07359 and -0.0114 and 0.652 and 0.7051 and 0.1667 and -0.0685 and 0.08312
- functional response, concentration-response point (FigS7e, normalized) ([4]; M = -8.52): -0.1696 and -0.1994 and 0.2365 and -0.2192 and 0.07356 and 0.6319 and 1.0091 and 0.1075 and 0.1334 and 0.5456 and 0.1807 and -0.04223
- functional response, concentration-response point (FigS7e, normalized) ([4]; M = -12): -0.3529 and 0.3603 and 0.09782 and -0.1053
